Source: patent US20190216093A1, “COMPOSITIONS AND RELATED METHODS FOR AGRICULTURE” (priority 2017, published 2019)
“Also recorded” adds a separate entry of the source.

Experiments:
[1] = tested on: Acyrthosiphon pisum aphids; assay: Aphid developmental stage monitoring; assay type: in vivo; settings: for aphids that did not mature further than the 4th instar stage: eNASCO, 11 days post-treatment
[2] = tested on: Acyrthosiphon pisum aphids; assay: Aphid survival monitoring; assay type: in vivo
[3] = tested on: endosymbiotic Buchnera; assay: Buchnera/aphid DNA copy numbers by qPCR; assay type: in vivo, Buchnera aphidicola
Method: (§1) After 7 days of treatment, DNA was extracted from multiple aphids from each treatment group. Briefly, the aphid body surface was sterilized by dipping the aphid into a 6% bleach solution for approximately 5 seconds. Aphids were then rinsed in sterile water and DNA was extracted from each individual aphid using a DNA extraction kit (Qiagen, DNeasy kit) according to manufacturer's instructions. DNA concentration was measured using a nanodrop nucleic acid quantification, and Buchnera and aphid DNA copy numbers were measured by qPCR. […]
(§2) After 8 days of treatment, DNA was extracted from multiple aphids from each treatment group. Briefly, the aphid body surface was sterilized by dipping the aphid into a 6% bleach solution for approximately 5 seconds. Aphids were then rinsed in sterile water and DNA was extracted from each individual aphid using a DNA extraction kit (Qiagen, DNeasy kit) according to manufacturer's instructions. DNA concentration was measured using a nanodrop nucleic acid quantification, and Buchnera and aphid DNA copy numbers were measured by qPCR.
as §2, with “from the remaining” for “from multiple”, “aphids in” for “aphids from”
(§3) After 7 of treatment, DNA was extracted from the remaining aphids in each treatment group. Briefly, the aphid body surface was sterilized by dipping the aphid into a 6% bleach solution for approximately 5 seconds. Aphids were then rinsed in sterile water and DNA was extracted from each individual aphid using a DNA extraction kit (Qiagen, DNeasy kit) according to manufacturer's instructions. DNA concentration was measured using a nanodrop nucleic acid quantification, and Buchnera and aphid DNA copy numbers were measured by qPCR.
as §3, with “Briefly,” for “After 7 of treatment, DNA was extracted from the remaining aphids in each treatment group. Briefly,”
as §1, with “3” for “7”, “the remaining living” for “multiple”

[4] = tested on: ApGLNT1 glutamine transporter; settings: Price et al., 2014 PNAS; cited from earlier work
[5] = tested on: gram-negative and gram-positive organisms; settings: cited from earlier work
[6] = tested on: Plasmodium falciparium; settings: previous study (Saliba et al., 2005); cited from earlier work
[7] = tested on: Acyrthosiphon pisum aphids; assay: Aphid body area (size) measurement from images; assay type: in vivo; settings: eNASCO; 10 or 100 uM pantothenol in artificial diet; by 3 days post-treatment
Method: For adult aphids, new nymphs were counted daily and then discarded. At the end of the experiments, fecundity was determined as the mean number of offspring produced daily once the aphid reached adulthood. Pictures of aphids were taken throughout the experiment to evaluate size differences between treatment groups.
Each treatment group received approximately the same number of individuals from each of the collection plant. For each treatment, 20 aphids were placed onto each leaf. Aphids were monitored daily for survival and dead aphids were removed when they were discovered. In addition, the developmental stage (1st, 2nd, 3rd, 4th, 5th instar, and 5R, representing a reproducing 5th instar) was determined daily throughout the experiment. […]
(§4) For adult aphids, new nymphs were counted daily and then discarded. At the end of the experiments, fecundity was measured in two ways: 1) the mean day at which the first offspring for the treatment group was determined and 2) the mean number of offspring produced daily once the aphid reached adulthood. […]
Aphids LSR-1 (which harbor only Buchnera), Acyrthosiphon pisum were grown on fava bean plants (Vroma vicia faba from Johnny's Selected Seeds) in a climate-controlled incubator (16 h light/8 h dark photoperiod; 60±5% RH; 25±2° C.). […] Aphids were monitored daily for survival and dead aphids were removed from the deep petri dish when they were discovered. […]

[8] = tested on: Acyrthosiphon pisum aphids; assay: Aphid fecundity (offspring production); assay type: in vivo; settings: for aphid reproduction: 10 or 100 uM pantothenol
Method: In addition, the developmental stage (1st, 2nd, 3rd, 4th, 5th, and 5R (5th that has reproduced) instar) was determined daily throughout the experiment. Once an aphid reached the 4th instar stage, they were given their own artificial feeding system in a deep petri dish so that fecundity could be monitored once they reached adulthood.
as §4, with “adulthood. Pictures of aphids were taken throughout the experiment to evaluate size differences between treatment groups.” for “adulthood.”

[9] = tested on: gram-negative and gram-positive bacteria as well as fungi; settings: cited from earlier work
[10] = LSR-1, 100 μg/ml rifampicin in artificial diet without essential amino acids, through plants

## CC(=O)CCC(=O)O [levulinic acid]
[1]; eNASCO 1st and 2nd instar, 0.03 or 0.3% levulinic acid, leaf injection and through plant
  aphid developmental stage: Development was delayed; also recorded: resulted in delayed aphid development
[1]; 0.03% levulinic acid
  aphids that did not mature further than the 4th instar stage: ~23%
[1]; 0.3% levulinic acid
  aphids that did not mature further than the 4th instar stage: ~63%
[2]; eNASCO, 0.03% levulinic acid, difference did not reach statistical significance
  aphid mortality: higher mortality compared to control treated aphids
[2]; eNASCO, 0.03 or 0.3% levulinic acid
  aphid survival: dose-dependent decrease in survival; also recorded: decrease in insect survival
[2]; eNASCO, 0.3% levulinic acid, 11-day experiment
  aphid survival: survival was significantly less
[3]; 0.03 or 0.3% levulinic acid in water, 7 days
  Buchnera/aphid DNA copies, fold less than control: ~6 -fold less
[3]; 0.03 or 0.3% levulinic acid, seven and eleven days post-treatment
  Buchnera/aphid ratio: reduced endosymbiotic Buchnera

## CO[C@H]1/C=C/O[C@@]2(C)Oc3c(C)c(O)c4c(O)c(c(/C=N/N5CCN(C)CC5)c(O)c4c3C2=O)NC(=O)/C(C)=C\C=C\[C@H](C)[C@H](O)[C@@H](C)[C@@H](O)[C@@H](C)[C@H](OC(C)=O)[C@@H]1C [rifampicin, reference compound]
[2]; [10]
  all aphids succumbed to treatment by: ≤ 9 days
  aphids began dying after: 1 days
[3]; LSR-1, 100 μg/ml rifampicin through plants, 7 days of treatment
  Buchnera/aphid DNA copies, fold less than control: ~4 -fold less

## Cc1cc2c(C(C)C)c(O)c(O)c(C=O)c2c(O)c1-c1c(C)cc2c(C(C)C)c(O)c(O)c(C=O)c2c1O [gossypol, gossypol acetic acid]
[2]; 0.5% gossypol
  all aphids succumbed to treatment by: ≤ 4 days
  aphids began dying after: 2 days
[3]; 0.25 and 0.5% of gossypol, 5 or 13 days
  Buchnera/aphid DNA copies, fold less than control: ~4 -fold less

## N=C(N)NCCC[C@H](N)C(=O)O [arginine]
[4]
  glutamine uptake: inhibits glutamine uptake by the glutamine transporter

## O=C/C=C/c1ccccc1 [trans-cinnemaldehyde]
[1]; 5% trans-cinnemaldehyde
  aphid developmental stage: remained at the 1st instar stage throughout the course of the experiment
[1]; LSR-1 1st and 2nd instar, trans-cinnemaldehyde 0.05%, 0.5%, 5% in water, leaf perfusion and through plants, 3 days
  aphid developmental stage: none of the aphids matured past the second instar stage
[1]; LSR-1 1st and 2nd instar, trans-cinnemaldehyde 0.05%, 0.5%, 5% in water, leaf perfusion and through plants, 3 days, listed as Trans-cinnemaldehyde
  aphid developmental stage: resulted in delayed aphid development
[2]; 0.05%, 0.5%, and 5% trans-cinnemaldehyde, 3 days
  aphid survival rate: dose-dependent decrease in survival; also recorded: significantly lower
[3]; 0.5 and 5% of trans-cinnemaldehyde, 3 days
  Buchnera/aphid DNA copies, fold less than control: ~870 -fold less
[3]; lowest concentration of trans-cinnemaldehyde (0.5%), 3 days
  Buchnera/aphid DNA copies: high ratios of Buchnera/aphid DNA copies
[3]; trans-cinnemaldehyde 0.05%, 0.5%, 5%, 3 days post-treatment
  Buchnera/aphid DNA (symbiont titer): reduced endosymbiotic Buchnera
[5]
  antimicrobial activity: antimicrobial activity against both gram-negative and gram-positive organisms

## CC(C)(CO)[C@@H](O)C(=O)NCCCO [pantothenol]
[6]
  growth of Plasmodium falciparium: inhibits the growth of Plasmodium falciparium
[7]
  aphid area: drastic effect of pantothenol treatment; also recorded: smaller in area than untreated controls
[8]; 10 uM pantothenol (control approximately 7)
  mean number of offspring per day produced by reproducing aphids: approximately 4 offspring/day
[8]; 100 uM pantothenol (control approximately 7)
  mean number of offspring per day produced by reproducing aphids: ~5 offspring/day
[8]
  aphid reproduction: loss of aphid reproduction
[8]; listed as Pantothenol
  aphid reproduction: resulted in loss of reproduction
[8]; all treatment groups (10 and 100 uM pantothenol)
  mean day aphids began reproducing: 7 days
[1]; eNASCO 1st and 2nd instar, 10 or 100 uM pantothenol in artificial diet without essential amino acids, through plants
  aphid developmental stage: Development was delayed
[1]; eNASCO 1st and 2nd instar, 10 or 100 uM pantothenol in artificial diet without essential amino acids, through plants, listed as Pantothenol
  aphid developmental stage: delayed aphid development
[1]; eNASCO 1st instar, leaf coating, 10 uM pantothenol in 0.025% Silwet L-77
  aphid developmental stage: did not affect aphid development
[2]; eNASCO, 10 or 100 uM pantothenol in artificial diet, through plants
  aphid survival: increased aphid mortality; also recorded: negatively affected aphid fitness
[2]; eNASCO, leaf coating, 10 uM pantothenol
  aphid survival rate: lower survival rates than aphids placed on coated leaves with the control solution
[2]; eNASCO, leaf coating, 10 uM pantothenol, listed as Pantothenol
  aphid survival rate: resulted in aphid death
[3]; 10 or 100 uM pantothenol, 8 days
  Buchnera/aphid DNA copies: does not affect Buchnera/aphid DNA copy number directly
[3]; 10 or 100 uM pantothenol, 8 days, listed as Pantothenol
  Buchnera/aphid DNA copies: did not affect endosymbiotic Buchnera

B1: NCR335: cationic NCR peptide (peptide)
chain: MQIGKNMVETPKLDYVIIFFFLYFFFRQMIILRLNTTFRPLNFKMLRFWGQNRNIMKHRGQKVHFSLILSDCKTNKDCPKLRRANVRCRKSYCVPI
[9]
  antimicrobial activities: effective against gram-negative and gram-positive bacteria as well as fungi
